In patent US20050208496A1, “Methods of testing for bronchial asthma or chronic obstructive pulmonary disease” (Genox Research, Inc., priority 2002, published 2005):

Tested on: respiratory epithelial cells

## IL-13: human IL-13 (Peprotech, Inc.) added to the medium at 50 ng/mL to stimulate respiratory epithelial cells
Lot 1, Day 3, AI method
  DD96 (31610_at) expression, fold change upon IL-13 stimulation: 6.3 fold
  DKFZP564O0823 (41402_at) expression, fold change upon IL-13 stimulation: 5 fold
  DKFZP566J091 (57197_at) expression fold change: 9.4 fold
  DKFZp564N1116 (37784_at) expression, fold change upon IL-13 stimulation: 6.4 fold
  DNAJA1 (276_at) expression fold change upon IL-13 stimulation: 2 fold
  DPYD (38220_at) expression fold change upon IL-13 stimulation: 2.7 fold
  EMILIN-2 (51628_at) expression fold change: 2.1 fold
  FABP4 (38430_at) expression, fold change upon IL-13 stimulation: 3.8 fold
  FBP1 (36495_at) expression fold change upon IL-13 stimulation: 3.2 fold
  FETUB (32620_at) expression fold change: 3.7 fold
  FETUB (33101_g_at) expression fold change: 2.2 fold
  FLJ10261 (43366_at) expression fold change: 7.9 fold
  FLJ22693 (53777_at) expression fold change: 2.8 fold
  FUT10 (908_at) expression fold change upon IL-13 stimulation: 5.8 fold
  G1P3 (1358_s_at) expression, fold change upon IL-13 stimulation: 7.1 fold
  GADD45G (39154_at) expression fold change upon IL-13 stimulation: 3.1 fold
  GBP5 (52615_at) expression fold change: 2.4 fold
  GS3686 (36927_at) expression, fold change upon IL-13 stimulation: 5.7 fold
  HAS3 (54604_at) expression fold change: 2.3 fold
  HDAC9 (37483_at) expression fold change upon IL-13 stimulation: 4.1 fold
  HLA-F (37420_i_at) expression, fold change upon IL-13 stimulation: 2.9 fold
  HLA-F (49203_f_at) expression fold change: 2.4 fold
  HS3ST1 (41556_s_at) expression fold change upon IL-13 stimulation: 3.4 fold
  ICAMt (32640_at) expression fold change upon IL-13 stimulation: 6.5 fold
  IFI27 (425_at) expression, fold change upon IL-13 stimulation: 3.8 fold
  IFI27 (48864_at) expression fold change: 2.9 fold
  IFI35 (464_s_at) expression, fold change upon IL-13 stimulation: 13.2 fold
  IFI44 (37641_at) expression, fold change upon IL-13 stimulation: 5.9 fold
  IFIT1 (915_at) expression, fold change upon IL-13 stimulation: 19.2 fold
  IFIT1 (32814_at) expression, fold change upon IL-13 stimulation: 10.6 fold
  IFIT4 (38584_at) expression, fold change upon IL-13 stimulation: 2.7 fold
  IFITM1 (675_at) expression, fold change upon IL-13 stimulation: 10.7 fold
  IL13RA2 (1016_s_at) expression fold change upon IL-13 stimulation: 10.2 fold
  IL19 (47855_at) expression fold change: 4 fold
  ILIRL1 (40322_at) expression, fold change upon IL-13 stimulation: 5.5 fold
  IRF7 (36412_s_at) expression fold change: 4.9 fold
  ISG15 (1107_s_at) expression, fold change upon IL-13 stimulation: 13.1 fold
  ISG15 (38432_at) expression, fold change upon IL-13 stimulation: 23.7 fold
  ISG20 (33304_at) expression, fold change upon IL-13 stimulation: 4.8 fold
  KIAA0537 (33787_at) expression, fold change upon IL-13 stimulation: 7.5 fold
  KIAA1268 (57050_at) expression fold change: 3.2 fold
  KIAAI268 (59516_at) expression fold change: 4.1 fold
  LAMP3 (37168_at) expression, fold change upon IL-13 stimulation: 6.3 fold
  LOC57118 (51085_at) expression fold change: 2.4 fold
  LOC64116 (40456_at) expression, fold change upon IL-13 stimulation: 2.2 fold
  MDA5 (51920_at) expression fold change: 6.6 fold
  MFHAS1 (50388_at) expression fold change: 2.3 fold
  MICB (35937_at) expression, fold change upon IL-13 stimulation: 3.3 fold
  MKP-L (38272_at) expression, fold change upon IL-13 stimulation: 2 fold
  MMP7 (668_s_at) expression, fold change upon IL-13 stimulation: 2.6 fold
  MX2 (879_at) expression fold change: 8.7 fold
  MXI (37014_at) expression fold change: 12.3 fold
  NCF2 (41038_at) expression fold change: 2.9 fold
  NK4 (39119_s_at) expression fold change upon IL-13 stimulation: 4 fold
  NOS2A (1948_f_at) expression fold change upon IL-13 stimulation: 5.3 fold
  NOS2A (48918_at) expression fold change: 4.3 fold
  OAF (39695_at) expression, fold change upon IL-13 stimulation: 3.4 fold
  OAS1 (38388_at) expression fold change upon IL-13 stimulation: 6.2 fold
  OAS1 (38389_at) expression fold change upon IL-13 stimulation: 4.5 fold
  OAS2 (39263_at) expression fold change upon IL-13 stimulation: 5 fold
  OSF-2 (1451_s_at) expression fold change upon IL-13 stimulation: 10.5 fold
  PHKB (46459_at) expression fold change: 2 fold
  PKD2 (38120_at) expression, fold change upon IL-13 stimulation: 2.8 fold
  PLOD2 (34795_at) expression fold change upon IL-13 stimulation: 2.3 fold
  PLS1 (39951_at) expression fold change: 2.5 fold
  PLSCR1 (32775_r_at) expression fold change upon IL-13 stimulation: 2.9 fold
  PSMB9 (38287_at) expression fold change upon IL-13 stimulation: 3.2 fold
  RIG-1 (59215_at) expression fold change: 7.2 fold
  SAMHD1 (34714_at) expression, fold change upon IL-13 stimulation: 3.4 fold
  SCYB10 (431_at) expression fold change upon IL-13 stimulation: 5.2 fold
  SCYB11 (35061_at) expression fold change upon IL-13 stimulation: 8.9 fold
  SECTM1 (41045_at) expression, fold change upon IL-13 stimulation: 6.5 fold
  SERPINB2 (37185_at) expression fold change: 2.1 fold
  SERPINB4 (1549_s_at) expression fold change: 4.2 fold
  SERPINB6 (34789_at) expression fold change: 2.2 fold
  SIAT1 (41352_at) expression fold change upon IL-13 stimulation: 4.7 fold
  SLC26A4, pendrin (36376_at) expression fold change: 18.8 fold
  SSI-1 (41592_at) expression, fold change upon IL-13 stimulation: 5.6 fold
  STAT1 (32860_g_at) expression fold change: 2.8 fold
  STAT1 (33338_at) expression fold change: 9.7 fold
  STAT1 (33339_g_at) expression fold change: 3.5 fold
  TGM2 (38404_at) expression fold change upon IL-13 stimulation: 8.5 fold
  THBS1 (115_at) expression fold change upon IL-13 stimulation: 10.4 fold
  TSPAN-3 (38612_at) expression, fold change upon IL-13 stimulation: 2.2 fold
  TXNRD1 (39425_at) expression fold change upon IL-13 stimulation: 2 fold
  UBE2L6 (40505_at) expression fold change upon IL-13 stimulation: 3.3 fold
  UFD1L (811_at) expression, fold change upon IL-13 stimulation: 2.3 fold
  WARS (38121_at) expression fold change upon IL-13 stimulation: 3.5 fold
  cig5 (38549_at) expression, fold change upon IL-13 stimulation: 10.1 fold
  diubiquitin (39959_at) expression, fold change upon IL-13 stimulation: 21.3 fold
Lot 1, Day 3, IMM method
  AA149682 (51925_at) expression fold change: 2.4 fold
  AA541787 (52622_at) expression fold change: 2.6 fold
  ADAM28 (35479_at) expression, fold change upon IL-13 stimulation: 4.8 fold
  AI565105 (54886_at) expression fold change: 2.2 fold
  AI659927 (54033_at) expression fold change: 8.3 fold
  AI989346 (52327_s_at) expression fold change: 2.3 fold
  ALOX15 (34636_at) expression, fold change upon IL-13 stimulation: 69.2 fold
  ARL7 (57151_at) expression fold change: 3.2 fold
  AW019985 (48826_s_at) expression fold change: 6 fold
  BAL (52167_at) expression fold change: 3.6 fold
  BRCA1 (626_s_at) expression fold change: 7.6 fold
  BST2 (39061_at) expression, fold change upon IL-13 stimulation: 8.3 fold
  C21orf11 (58957_at) expression fold change: 6.2 fold
  CDH6 (1620_at) expression fold change upon IL-13 stimulation: 4.2 fold
  CDH6 (57421_at) expression fold change: 4.7 fold
  CDH26 (46916_at) expression fold change: 16 fold
